Experimental findings from patent US10064839B2, “Methods of treating liver diseases” (Zafgen, Inc., priority 2012, dated 2018) are described below.

T1 sequence (P50579 whole entry): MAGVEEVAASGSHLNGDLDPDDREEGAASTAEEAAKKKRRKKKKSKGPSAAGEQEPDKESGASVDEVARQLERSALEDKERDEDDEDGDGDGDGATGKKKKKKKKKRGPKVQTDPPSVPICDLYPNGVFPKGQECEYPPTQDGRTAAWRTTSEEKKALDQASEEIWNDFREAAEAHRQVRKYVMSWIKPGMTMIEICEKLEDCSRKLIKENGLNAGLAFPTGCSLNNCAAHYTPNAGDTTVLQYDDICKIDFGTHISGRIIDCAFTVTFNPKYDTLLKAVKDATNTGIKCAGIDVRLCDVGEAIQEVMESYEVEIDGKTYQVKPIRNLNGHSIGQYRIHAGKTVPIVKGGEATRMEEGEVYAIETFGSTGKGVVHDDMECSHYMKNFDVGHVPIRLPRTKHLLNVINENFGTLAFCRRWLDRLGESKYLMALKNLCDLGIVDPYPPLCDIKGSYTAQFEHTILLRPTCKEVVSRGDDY

The first test deals with NASH mice. Nature of the test: Non-alcoholic steatohepatitis (STZ + high fat diet) mouse model. In kind it is in vivo. The settings on record: Telmisartan 10 mg/kg once daily oral, 5 to 9 weeks of age; Vehicle 18.8±1.0 g. The method, then: NASH was induced in 48 male mice by a single subcutaneous injection of 200 μg streptozotocin (STZ; Sigma-Aldrich) in the back of mice 2 days after birth, and by feeding with high fat diet (HFD; 57 kcal % fat) after 4 weeks of age. At 5 weeks of age, the NASH mice were randomized into 6 groups of 8 mice based on body weight. Eight male littermates, fed with normal diet (without STZ treatment, were used for the Normal group. Vehicle, Compound A and Telmisartan were administered by the oral route in a volume of 10 mL/kg body weight.
Compound A was administered twice daily at doses of 1, 3 or 10 mg/kg body weight (i.e., 2, 6 or 20 mg/kg/day) and once daily at dose of 30 mg/kg body weight. Telmisartan was administered once daily at a dose of 10 mg/kg body weight.
C57BL/6 mice (15-day pregnant female) were obtained from Charles River Laboratories Japan (Japan). The animals were maintained in a SPF facility under controlled conditions of temperature (23±2° C.), humidity (45±10%), lighting (12-hour artificial light and dark cycles; light from 8:00 to 20:00) and air exchange. A high pressure (20±4 Pa) was maintained in the experimental room to prevent contamination of the facility.
Mice were fasted for 4 hours before blood was collected at the time of sacrifice. HbA1c levels were quantified in whole blood samples by DCA Vantage Analyzer (Siemens Healthcare Diagnostics, USA). For plasma biochemistry, blood was collected in polypropylene tubes with anticoagulant (Novo-Heparin;) and centrifuged at 1,000×g for 15 minutes at 4° C. The supernatant was collected and stored at −80° C. until use. Plasma levels of glucose, ALT, TG and total cholesterol were measured by FUJI DRI-CHEM 7000 (Fujifilm, Japan). Plasma insulin concentration was quantified by the Ultra Sensitive Mouse Insulin ELISA Kit.
Liver total lipid-extracts were obtained by Folch's method (Folch J. et al., J. Biol. Chem. 1957; 226: 497). Liver samples were homogenized in chloroform-methanol (2:1, v/v) and incubated overnight at room temperature. After washing with chloroform-methanol-water (8:4:3, v/v/v), the extracts were evaporated to dryness, and dissolved in isopropanol. Liver TG levels were measured by Triglyceride E-test (Wako Pure Chemical Industries). Extracts were diluted 2-fold in isopropanol when the TG content exceeded the detection limit.
For HE staining, sections were cut from paraffin blocks of liver tissue prefixed in Bouin's solution and stained with Lillie-Mayer's Hematoxylin (Muto Pure Chemicals, Japan) and eosin solution (Wako Pure Chemical Industries). NAFLD Activity score (NAS) was calculated according to the criteria of Kleiner (Kleiner D E et al., Hepatology, 2005; 41:1313). To visualize collagen deposition, Bouin's fixed liver sections were stained using picro-Sirius red solution (Waldeck, Germany). To visualize macro- and microvesicular fat, cryosections were cut from frozen liver tissues, prefixed in 10% neutral buffered formalin, embedded in Tissue-Tek O.C.T. compound (Sakura Finetek Japan, Japan), and stained with Oil Red O (Sigma-Aldrich). For immunohistochemistry, sections were cut from frozen liver tissues embedded in Tissue-Tek O.C.T. compound and fixed in acetone. Endogenous peroxidase activity was blocked using 0.03% H2O2 for 5 minutes, followed by incubation with Block Ace (Dainippon Sumitomo Pharma, Japan) for 10 minutes. The sections were incubated with a 200-fold dilution of anti-F4/80 antibody (BMA Biomedicals, Switzerland) over night at 4° C. After incubation with secondary antibody (HRP-Goat anti-rat antibody, Invitrogen, USA), enzyme-substrate reactions were performed using 3, 3′-diaminobenzidine/H2O2 solution (Nichirei, Japan). […]
Regarding `CCCc1nc2c(C)cc(-c3nc4ccccc4n3C)cc2n1Cc1ccc(-c2ccccc2C(=O)O)cc1` [Telmisartan, reference compound], the “Mean body weight at the day before sacrifice” value was found to be 15.6 ± 1.8 g.

The test is the same for the next values; noted with them: Telmisartan 10 mg/kg once daily; Vehicle 1.07±0.18%.
As to `CCCc1nc2c(C)cc(-c3nc4ccccc4n3C)cc2n1Cc1ccc(-c2ccccc2C(=O)O)cc1` [Telmisartan, reference compound], the “Fibrosis area (Sirius red-positive area)” value came out at 0.42±0.08%.

The same test, now with this note: Telmisartan 10 mg/kg once daily; Vehicle 3.57±0.88%.
In the case of `CCCc1nc2c(C)cc(-c3nc4ccccc4n3C)cc2n1Cc1ccc(-c2ccccc2C(=O)O)cc1` [Telmisartan, reference compound], the “Inflammation area (F4/80-positive area)” value is reported as 3.84±0.86%.

The same test, now with this note: Telmisartan 10 mg/kg once daily; Vehicle 5.4±0.9.
Consider `CCCc1nc2c(C)cc(-c3nc4ccccc4n3C)cc2n1Cc1ccc(-c2ccccc2C(=O)O)cc1` [Telmisartan, reference compound], for which the “NAFLD Activity score (NAS)” value is 2.3±0.7.

The same test, now with this note: Telmisartan 10 mg/kg once daily; Vehicle 23.57±6.52%.
On to `CCCc1nc2c(C)cc(-c3nc4ccccc4n3C)cc2n1Cc1ccc(-c2ccccc2C(=O)O)cc1` [Telmisartan, reference compound], for which the “Fat deposition area (oil red-positive area)” value is on record as 17.29±7.66%.

The same test, now with this note: Telmisartan 10 mg/kg once daily; Vehicle 67.3±29.0.
As for `CCCc1nc2c(C)cc(-c3nc4ccccc4n3C)cc2n1Cc1ccc(-c2ccccc2C(=O)O)cc1` [Telmisartan, reference compound], the “Liver TG content” value amounted to 30.7±11.4 mg/g liver.

A further test concerns the target T1, recombinant human MetAP2 (Homo sapiens, UniProt P50579).
T1 construct: made in house; host or cells: Sf9 insect cells
Nature of the test: Recombinant human MetAP2 inhibition assay (MAS substrate, Amplex red fluorescence). In kind it is biochemical. The conditions noted are these: human recombinant MetAP2 manganese enzyme, 0.75 mM MAS substrate, 30 minutes at 25° C., pH 7.5; read-out: Activity (MetAP2 IC50 class). The method, then: Compounds are tested for their capacity to inhibit recombinant human MetAP2 activity using the following assay.
Human recombinant MetAP2 expressed in Sf9 cells followed by affinity purification and EDTA treatment to remove endogenous active site cation was dialysed against MnCl2 to produce the manganese enzyme used in the assay. The assay was carried out for 30 minutes at 25° C. in 50 mM HEPES buffer containing 100 mM NaCl, pH 7.5 the presence of 0.75 mM Methionine-Alanine-Serine (MAS) substrate and 50 µg/ml amino acid oxidase using a dilution of purified MetAP2 giving >3-fold signal: noise. Cleavage of the substrate by MetAP2 and oxidation of free methionine by amino acid oxidase was detected and quantified using fluorescence generated by Amplex red (10-acetyl-3,7-dihydroxyphenoxazine) in combination with horseradish peroxidase which detects H2O2 released during the oxidation step. The fluorescent signal was detected using a multiwell fluorimeter. Compounds were diluted in DMSO prior to addition to assay buffer, the final DMSO concentration in the assay being 1%.
IC50 values are calculated using the XLfit software package (version 2.0.5).
As to `O=C(O)c1c(NS(=O)(=O)c2ccccc2)ccc2c3c(cnc12)OCC3`, the IC50 is < 50 nM.

On to `CCN1CCC[C@H]1C(=O)N(C)Cc1cc(F)ccc1S(=O)(=O)Nc1ccc2c(c1C(=O)O)OC[C@@H]1C[C@H]21` (mixture of isomers), for which the IC50 was in the range of 50 to 500 nM.

Turning to `CCN1CC[C@@H](N(C)C(=O)Cc2cc(F)ccc2S(=O)(=O)Nc2ccc3c(c2C(=O)O)OC[C@@H]2C[C@H]32)C1` (mixture of isomers), the IC50 was in the range of 50 to 500 nM.

Regarding `CCN1CC[C@H](N(C)C(=O)Cc2cc(F)ccc2S(=O)(=O)Nc2ccc3c(c2C(=O)O)OC[C@@H]2C[C@H]32)C1` (mixture of isomers), the IC50 lay in the range of 50 to 500 nM.

Turning to `CCN1CC[C@@H](NC(=O)Cc2cc(F)ccc2S(=O)(=O)Nc2ccc3c(c2C(=O)O)OC[C@@H]2C[C@H]32)C1` (mixture of isomers), the IC50 lay within 50 to 500 nM.

With `CCN(CC)CC/C=C\c1cc(F)ccc1S(=O)(=O)Nc1ccc2c(c1C(=O)O)OC[C@@H]1C[C@H]21` (racemic) [(1aRS,7bSR)-5-[2((Z)-4-Diethylaminobut-1-enyl)-4-fluorobenzenesulfonyl-amino]-1,1a,2,7b-tetrahydrocyclopropa[c]chromene-4-carboxylic acid], the IC50 is < 50 nM.

For the compound `CCN(CC)C/C=C/c1cc(F)ccc1S(=O)(=O)Nc1ccc2c(c1C(=O)O)OC[C@@H]1C[C@]21C` (racemic) [(1aRS,7bSR)-5-[2-((E)-3-Diethylaminoprop-1-enyl)-4-fluorobenzenesulfonylamino]-7b-methyl-1,1a,2,7b-tetrahydrocyclopropa[c]chromene-4-carboxylic acid], the IC50 is 50 to 500 nM.

With `CCN(CC)C/C=C\c1cc(F)ccc1S(=O)(=O)Nc1ccc2c(c1C(=O)O)OC[C@@H]1[C@H]2C1(F)F` (racemic) [(1aRS,7bSR)-5-[2-((Z)-3-Diethylaminoprop-1-enyl)-4-fluorobenzene-sulfonylamino]-1,1-difluoro-1,1a,2,7b-tetrahydrocyclopropa[c]chromene-4-carboxylic acid], the IC50 was < 50 nM.

Consider `CCN(CC)C/C=C\c1cc(F)ccc1S(=O)(=O)Nc1ccc2c(c1C(=O)O)OC[C@@H]1C[C@]21C` (racemic) [(1aRS,7bSR)-5-[2-((Z)-3-Diethylaminoprop-1-enyl)-4-fluorobenzenesulfonylamino]-7b-methyl-1,1a,2,7b-tetrahydrocyclopropa[c]chromene-4-carboxylic acid], for which the IC50 was < 50 nM.

In the case of `CCN1CC(CNc2ccccc2S(=O)(=O)Nc2ccc3c(c2C(=O)O)OC[C@@H]2C[C@H]32)C1` (racemic) [(1aRS,7bSR)-5-{2-[(1-Ethylazetidin-3-ylmethyl)amino]benzene-sulfonylamino}-1,1a,2,7b-tetrahydrocyclopropa[c]chromene-4-carboxylic acid], the IC50 was 50 to 500 nM.

On to `O=C(O)c1c(NS(=O)(=O)c2ccc(F)cc2/C=C\CN2CC(O)C2)ccc2c1OC[C@@H]1C[C@H]21` (racemic) [(1aRS,7bSR)-5-{2[(Z)-3-(3-Hydroxyazetidin-1-yl)prop-1-enyl]-4-fluorobenzene-sulfonylamino}-1,1a,2,7b-tetrahydrocyclopropa[c]chromene-4-carboxylic acid], for which the IC50 was < 50 nM.

Turning to `CC(C)NC/C=C\c1cc(F)ccc1S(=O)(=O)Nc1ccc2c(c1C(=O)O)OC[C@@H]1C[C@H]21` (racemic) [(1aRS,7bSR)-5-{2[(Z)-3-(propan-2-yl)aminoprop-1-enyl]-4-fluorobenzene-sulfonylamino}-1,1a,2,7b-tetrahydrocyclopropa[c]chromene-4-carboxylic acid], the IC50 was 50 to 500 nM.

Turning to `CCN1CC[C@@H](Cc2cc(F)ccc2S(=O)(=O)Nc2ccc3c(c2C(=O)O)OCC2CC32)C1` (single isomer, unassigned) [listing 1 of 2 here], the IC50 fell in the range of 50 to 500 nM.

Consider `CCN(CC)C/C=C\c1ccccc1S(=O)(=O)Nc1ccc2c(c1C(=O)O)OCC1CC21` (single isomer, unassigned) [listing 1 of 2 here], for which the IC50 lay within 50 to 500 nM.

In the case of `O=C(O)c1c(NS(=O)(=O)c2ccc(F)cc2/C=C\CN2CCCC2)ccc2c1OCC1CC21` (single isomer, unassigned) [listing 1 of 2 here], the IC50 fell in the range of 50 to 500 nM.

With `CCNC/C=C\c1cc(F)ccc1S(=O)(=O)Nc1ccc2c(c1C(=O)O)OCC1CC21` (single isomer, unassigned) [listing 1 of 2 here], the IC50 was < 50 nM.

Take `CN(C)CCCNc1ccccc1S(=O)(=O)Nc1ccc2c(c1C(=O)O)OCC1CC21` (single isomer, unassigned): the IC50 was < 50 nM.

Regarding `CN(C)CCCCNc1ccccc1S(=O)(=O)Nc1ccc2c(c1C(=O)O)OCC1CC21` (single isomer, unassigned), the IC50 is < 50 nM.

Consider `CCN1CC[C@@H](Cc2cc(F)ccc2S(=O)(=O)Nc2ccc3c(c2C(=O)O)OCC2CC32)C1` (single isomer, unassigned) [listing 2 of 2 here], for which the IC50 was < 50 nM.

Take `CCN(CC)C/C=C\c1ccccc1S(=O)(=O)Nc1ccc2c(c1C(=O)O)OCC1CC21` (single isomer, unassigned) [listing 2 of 2 here]: the IC50 was < 50 nM.

Turning to `O=C(O)c1c(NS(=O)(=O)c2ccc(F)cc2/C=C\CN2CCCC2)ccc2c1OCC1CC21` (single isomer, unassigned) [listing 2 of 2 here], the IC50 fell in the range of 50 to 500 nM.

With `CCNC/C=C\c1cc(F)ccc1S(=O)(=O)Nc1ccc2c(c1C(=O)O)OCC1CC21` (single isomer, unassigned) [listing 2 of 2 here], the IC50 lay within 50 to 500 nM.

For the compound “(1aRS,7bSR)-5-{2[(Z)-3-((R)-3-Hydroxypyrrolidin-1-yl)aminoprop-1-enyl]-4-fluorobenzene-sulfonylamino}-1,1a,2,7b-tetrahydro-cyclopropa[c]chromene-4-carboxylic acid”, the IC50 lay within 50 to 500 nM.

In the case of “(1aRS,7bSR)-5-{2[(Z)-3-((S)-3-hydroxypyrrolidin-1-yl)aminoprop-1-enyl]-4-fluorobenzenesulfonylamino}-1,1a,2,7b-tetrahydrocyclopropa[c]chromene-4-carboxylic acid”, the IC50 fell in the range of 50 to 500 nM.

Broadly, the IC50 is the point on the concentration scale where inhibition reaches its midpoint.
